Experimental data: paper PMC7584622, “Sensing of autoinducer-2 by functionally distinct receptors in prokaryotes” (Nature Communications, 2020)
“And” between values parts separate entries of the source, which are not always exact repeats. Equal entries are not always repeated.

Tests used:
PctC-LBDF147Y = biological target: T1, PctC-LBDF147Y (Pseudomonas aeruginosa, UniProt Q9HW93, F147Y); experiment: biochemical; type: binding; conditions: 700 μM DPD/AI-2 into 70 μM PctC-LBD F147Y
T1 construct: the dCACHE-type LBDs of PctB and PctC; His6 (N, cleaved yes); made in house; host or cells: E. coli BL21(DE3) (pET-28a derivative)

PctA-LBD Y121A = biological target: T2, PctA-LBD Y121A (Pseudomonas aeruginosa, UniProt G3XD24, Y121A); experiment: biochemical; type: binding; conditions: PctA-LBD Y121A 70 μM; DPD/AI-2 700 μM
T2 construct: Amino acids 30-278 and 36-360 of PctA and TlpQ, respectively; His6 (N, cleaved yes); made in house; host or cells: E. coli BL21(DE3) (pET-28a derivative)

PctA-LBD Y101A = biological target: T3, PctA-LBD Y101A (Pseudomonas aeruginosa, UniProt G3XD24, Y101A); experiment: biochemical; type: binding; conditions: PctA-LBD Y101A 70 μM; DPD/AI-2 700 μM
T3 construct: Amino acids 30-278 and 36-360 of PctA and TlpQ, respectively; His6 (N, cleaved yes); made in house; host or cells: E. coli BL21(DE3) (pET-28a derivative)

PctA-LBD Y144A = biological target: T4, PctA-LBD Y144A (Pseudomonas aeruginosa, UniProt G3XD24, Y144A); experiment: biochemical; type: binding; conditions: PctA-LBD Y144A 70 μM; DPD/AI-2 700 μM
T4 construct: Amino acids 30-278 and 36-360 of PctA and TlpQ, respectively; His6 (N, cleaved yes); made in house; host or cells: E. coli BL21(DE3) (pET-28a derivative)

PctA-LBD W128A = biological target: T5, PctA-LBD W128A (Pseudomonas aeruginosa, UniProt G3XD24, W128A); experiment: biochemical; type: binding; conditions: PctA-LBD W128A 70 μM; DPD/AI-2 700 μM
T5 construct: Amino acids 30-278 and 36-360 of PctA and TlpQ, respectively; His6 (N, cleaved yes); made in house; host or cells: E. coli BL21(DE3) (pET-28a derivative)

PctA-LBD A147F = biological target: T6, PctA-LBD A147F (Pseudomonas aeruginosa, UniProt G3XD24, A147F); experiment: biochemical; type: binding; conditions: PctA-LBD A147F 70 μM; DPD/AI-2 700 μM
T6 construct: Amino acids 30-278 and 36-360 of PctA and TlpQ, respectively; His6 (N, cleaved yes); made in house; host or cells: E. coli BL21(DE3) (pET-28a derivative)

PctA-LBD D146A = biological target: T7, PctA-LBD D146A (Pseudomonas aeruginosa, UniProt G3XD24, D146A); experiment: biochemical; type: binding; conditions: PctA-LBD D146A 70 μM; DPD/AI-2 700 μM
T7 construct: Amino acids 30-278 and 36-360 of PctA and TlpQ, respectively; His6 (N, cleaved yes); made in house; host or cells: E. coli BL21(DE3) (pET-28a derivative)

P. aeruginosa PAO1 [1] = experiment: confocal laser-scanning microscopy of static biofilms (biovolume, COMSTAT); conditions: 100 nM DPD/AI-2
Protocol: Biofilms were stained with crystal violet and quantified using optical density measurement after incubation at 37 °C for 48 h. […] Images were reconstructed using the Imaris 9.0 software package (Bitplane, AG) (Supplementary Fig. 6) and biofilm biovolumes were quantified using COMSTAT (www.comstat.dk). Biovolumes were calculated from three biological replicates and each biological replicate was derived from an average of five confocal images.
For confocal laser-scanning microscopy and image analysis of static biofilms, overnight cultures of P. aeruginosa strains carrying pME6032-mCherry were diluted with TSB medium to an OD600 of 0.01 (~2 × 10^7 CFU ml^−1). […] The cultures were incubated at 37 °C under static conditions and biofilms were visualized using a Revolution XD laser-scanning confocal microscope (Andor, Belfast, Northern Ireland) after 1, 10, and 19 h. The excitation/emission wavelength for mCherry was 568/590 nm. Images were reconstructed using the Imaris 9.0 software package (Bitplane, AG) and the biovolumes were calculated using COMSTAT 2.1[46] plugin in ImageJ software (version 1.48). Biovolumes were measured and calculated from three biological replicates and each biological replicate was derived from an average of five confocal images.

PctC-LBD = PctC-LBD (Pseudomonas aeruginosa, UniProt Q9HW93); experiment: ITC binding to PctC-LBD; conditions: 700 μM DPD/AI-2 into 70 μM PctC-LBD, minor heats, not certain whether they reflect binding
Protocol: ITC experiments were performed at 20 °C using a Nano ITC Standard Volume isothermal calorimeter (TA Instruments, New Castle, DE). […] The stirring speed was 200 r.p.m. and 25 injections were used each experiment. Three independent experiments were performed for each sample. […] ITC data were analyzed and fit with a one-site independent binding model using the NanoAnalyze software version 3.4 provided by the manufacturer, with the heat of dilution subtracted from the experimental titrations before data analysis.

P. aeruginosa PAO1 [2] = experiment: crystal violet quantification of biofilm formation; conditions: 100 nM DPD/AI-2, 37 °C, 48 h
Protocol: Biofilms were stained with crystal violet and quantified using optical density measurement after incubation at 37 °C for 48 h. Data are mean ± s.e.m. of five independent experiments. b Quantification of biofilm formation by P. aeruginosa strains from confocal imaging. […] Images were reconstructed using the Imaris 9.0 software package (Bitplane, AG) (Supplementary Fig. 6) and biofilm biovolumes were quantified using COMSTAT (www.comstat.dk). Biovolumes were calculated from three biological replicates and each biological replicate was derived from an average of five confocal images.
For crystal violet quantification of biofilm formation, overnight cultures of relevant strains of P. aeruginosa were diluted with TSB medium to an OD600 of 0.05, and 190 μl aliquots of the diluted cells were inoculated into each well of a 96-well microtiter plate (cat# 220400, Zhejiang Sorfa Life Science Research Co., Ltd., China). […] After incubation at 37 °C for 48 h without shaking, culture supernatant was removed and the wells were washed twice with phosphate-buffered saline (PBS). Cells adhering to the wells were stained with 0.1% (w/v) crystal violet for 15 min and then washed three times with PBS. The bacteria-bound dye was dissolved in 200 μl of 95% ethanol and the absorbance was determined at 590 nm.

KinD-LBD = biological target: T8, KinD-LBD (Bacillus subtilis, UniProt O31671); experiment: ITC binding to KinD-LBD; parameters: species or system B. subtilis; conditions: 700 μM DPD/AI-2 into 70 μM KinD-LBD
T8 construct: the LBD of HK KinD from B. subtilis; His6 (N, cleaved yes); made in house; host or cells: E. coli BL21(DE3) (pET-28a derivative)

PctA-LBD D173A = biological target: T9, PctA-LBD D173A (Pseudomonas aeruginosa, UniProt G3XD24, D173A); experiment: biochemical; type: binding; conditions: PctA-LBD D173A 70 μM; DPD/AI-2 700 μM
T9 construct: Amino acids 30-278 and 36-360 of PctA and TlpQ, respectively; His6 (N, cleaved yes); made in house; host or cells: E. coli BL21(DE3) (pET-28a derivative)

rpHK1S-Z16-LBD = rpHK1S-Z16-LBD (Rhodopseudomonas palustris, UniProt Q6N3S7); experiment: ITC binding to rpHK1S-Z16-LBD; parameters: species or system R. palustris; conditions: 700 μM DPD/AI-2 into 70 μM rpHK1S-Z16-LBD
PctA-LBD R126A = biological target: T10, PctA-LBD R126A (Pseudomonas aeruginosa, UniProt G3XD24, R126A); experiment: biochemical; type: binding; conditions: PctA-LBD R126A 70 μM; DPD/AI-2 700 μM
T10 construct: Amino acids 30-278 and 36-360 of PctA and TlpQ, respectively; His6 (N, cleaved yes); made in house; host or cells: E. coli BL21(DE3) (pET-28a derivative)
T10 sequence (G3XD24 30-278 R126A): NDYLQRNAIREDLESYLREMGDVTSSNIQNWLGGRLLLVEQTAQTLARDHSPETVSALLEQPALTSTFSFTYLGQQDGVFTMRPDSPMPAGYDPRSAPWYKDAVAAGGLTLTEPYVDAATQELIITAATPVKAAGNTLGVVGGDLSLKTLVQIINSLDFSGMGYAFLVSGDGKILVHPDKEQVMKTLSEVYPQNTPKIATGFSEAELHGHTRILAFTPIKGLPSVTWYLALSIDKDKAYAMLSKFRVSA

T7 sequence (G3XD24 30-278 D146A): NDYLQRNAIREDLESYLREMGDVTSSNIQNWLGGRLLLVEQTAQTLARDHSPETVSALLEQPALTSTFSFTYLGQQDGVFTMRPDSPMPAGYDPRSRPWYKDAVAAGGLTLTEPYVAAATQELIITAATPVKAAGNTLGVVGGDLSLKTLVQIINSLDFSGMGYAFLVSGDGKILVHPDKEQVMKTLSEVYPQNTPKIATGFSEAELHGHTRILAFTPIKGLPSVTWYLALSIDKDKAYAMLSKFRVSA
T2 sequence (G3XD24 30-278 Y121A): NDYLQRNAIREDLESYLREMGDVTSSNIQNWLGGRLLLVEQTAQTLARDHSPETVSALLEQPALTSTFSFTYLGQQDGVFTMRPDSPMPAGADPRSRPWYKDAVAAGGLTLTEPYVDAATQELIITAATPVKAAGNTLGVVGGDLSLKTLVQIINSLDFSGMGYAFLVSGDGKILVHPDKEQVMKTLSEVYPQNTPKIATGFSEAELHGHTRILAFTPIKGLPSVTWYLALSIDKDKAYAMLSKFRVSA
Chain of PctC-LBD (Q9HW93 32-279): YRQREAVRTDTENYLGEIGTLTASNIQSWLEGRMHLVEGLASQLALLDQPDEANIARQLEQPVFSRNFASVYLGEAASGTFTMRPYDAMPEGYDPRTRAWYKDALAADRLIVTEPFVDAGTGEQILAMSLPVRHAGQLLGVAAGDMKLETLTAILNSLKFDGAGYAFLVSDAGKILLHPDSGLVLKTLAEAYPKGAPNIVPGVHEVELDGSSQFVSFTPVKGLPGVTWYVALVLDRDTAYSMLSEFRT
T9 sequence (G3XD24 30-278 D173A): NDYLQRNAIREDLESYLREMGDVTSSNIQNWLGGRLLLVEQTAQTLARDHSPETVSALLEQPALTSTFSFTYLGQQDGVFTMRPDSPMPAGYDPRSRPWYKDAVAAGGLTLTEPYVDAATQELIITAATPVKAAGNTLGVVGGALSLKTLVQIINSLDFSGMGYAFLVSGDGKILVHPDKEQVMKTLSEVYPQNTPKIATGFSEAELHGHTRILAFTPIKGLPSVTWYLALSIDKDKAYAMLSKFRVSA
T3 sequence (G3XD24 30-278 Y101A): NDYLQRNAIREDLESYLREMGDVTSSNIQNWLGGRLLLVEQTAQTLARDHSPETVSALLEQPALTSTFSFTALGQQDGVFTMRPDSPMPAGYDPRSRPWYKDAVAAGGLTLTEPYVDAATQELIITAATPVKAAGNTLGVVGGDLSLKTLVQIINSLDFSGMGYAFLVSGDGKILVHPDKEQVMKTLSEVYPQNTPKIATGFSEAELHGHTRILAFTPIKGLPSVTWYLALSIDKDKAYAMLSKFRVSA
T1 sequence (Q9HW93 32-279 F147Y): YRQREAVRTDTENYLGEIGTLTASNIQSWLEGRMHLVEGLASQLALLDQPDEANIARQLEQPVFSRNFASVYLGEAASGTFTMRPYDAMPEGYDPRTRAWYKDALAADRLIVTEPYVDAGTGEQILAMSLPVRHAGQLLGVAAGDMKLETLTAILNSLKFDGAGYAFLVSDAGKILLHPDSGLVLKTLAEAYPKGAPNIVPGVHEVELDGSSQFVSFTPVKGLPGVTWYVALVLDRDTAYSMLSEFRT
T8 sequence (O31671 37-250): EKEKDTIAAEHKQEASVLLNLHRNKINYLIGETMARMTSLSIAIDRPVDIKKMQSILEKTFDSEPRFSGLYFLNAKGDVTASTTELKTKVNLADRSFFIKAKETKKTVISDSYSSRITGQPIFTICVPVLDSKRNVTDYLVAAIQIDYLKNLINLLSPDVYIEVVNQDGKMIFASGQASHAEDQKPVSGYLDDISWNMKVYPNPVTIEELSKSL
T4 sequence (G3XD24 30-278 Y144A): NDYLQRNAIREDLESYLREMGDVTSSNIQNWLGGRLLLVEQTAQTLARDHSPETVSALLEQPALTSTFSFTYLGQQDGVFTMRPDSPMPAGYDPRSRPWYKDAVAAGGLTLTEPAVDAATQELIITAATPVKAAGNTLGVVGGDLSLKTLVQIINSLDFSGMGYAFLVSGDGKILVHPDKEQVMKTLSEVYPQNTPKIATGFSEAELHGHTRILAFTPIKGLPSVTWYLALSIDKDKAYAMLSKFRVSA
Chain of rpHK1S-Z16-LBD (Q6N3S7 entry or part of it): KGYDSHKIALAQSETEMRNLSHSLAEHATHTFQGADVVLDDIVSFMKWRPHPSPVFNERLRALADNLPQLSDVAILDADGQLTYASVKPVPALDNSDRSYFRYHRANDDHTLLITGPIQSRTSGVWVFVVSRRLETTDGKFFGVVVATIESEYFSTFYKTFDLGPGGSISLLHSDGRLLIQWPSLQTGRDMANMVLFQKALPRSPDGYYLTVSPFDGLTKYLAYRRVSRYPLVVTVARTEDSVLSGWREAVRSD
T5 sequence (G3XD24 30-278 W128A): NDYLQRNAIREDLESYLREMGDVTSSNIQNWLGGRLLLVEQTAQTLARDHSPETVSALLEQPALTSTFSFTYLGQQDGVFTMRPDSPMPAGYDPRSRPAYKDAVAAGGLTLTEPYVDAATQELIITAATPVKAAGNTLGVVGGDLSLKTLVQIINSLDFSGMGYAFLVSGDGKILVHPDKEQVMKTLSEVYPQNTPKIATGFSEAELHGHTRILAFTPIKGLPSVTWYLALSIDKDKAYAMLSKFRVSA
T6 sequence (G3XD24 30-278 A147F): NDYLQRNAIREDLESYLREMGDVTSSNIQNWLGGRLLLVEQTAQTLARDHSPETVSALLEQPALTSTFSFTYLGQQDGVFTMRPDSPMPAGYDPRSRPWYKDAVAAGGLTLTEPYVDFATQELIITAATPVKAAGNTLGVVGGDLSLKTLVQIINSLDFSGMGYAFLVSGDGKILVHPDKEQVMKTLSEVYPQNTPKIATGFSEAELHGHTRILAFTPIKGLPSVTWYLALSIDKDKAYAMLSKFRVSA

SMILES: CC(=O)C(=O)C(O)CO (stereo not shown) [DPD/AI-2, 4,5-dihydroxy-2,3-pentanedione]
- Kd (PctC-LBDF147Y): 0.24 µM and 0.17 µM and 0.21 µM
- Kd (PctA-LBD Y121A): 23 µM and 22 µM and 19 µM
- Kd (PctA-LBD Y101A): 33 µM and 42 µM and 34 µM
- Kd (PctA-LBD Y144A): 16 µM and 14 µM and 12 µM
- Kd (PctA-LBD W128A): 25 µM and 24 µM and 18 µM
- Kd (PctA-LBD A147F): 11 µM and 10 µM and 12 µM
- Kd (PctA-LBD D146A): 39 µM and 30 µM and 31 µM
- Biovolume of P. aeruginosa (P. aeruginosa PAO1 [1]; WT, 1 h): 28364 μm3 mm-2 and 23058 μm3 mm-2 and 27608 μm3 mm-2
- Biovolume of P. aeruginosa (P. aeruginosa PAO1 [1]; WT, 10 h): 1281908 μm3 mm-2 and 1109100 μm3 mm-2 and 1052160 μm3 mm-2
- Biovolume of P. aeruginosa (P. aeruginosa PAO1 [1]; WT, 19 h): 3128446 μm3 mm-2 and 3141281 μm3 mm-2 and 3321156 μm3 mm-2
- Biovolume of P. aeruginosa (P. aeruginosa PAO1 [1]; ΔpctA, 1 h): 25418 μm3 mm-2 and 25743 μm3 mm-2 and 24604 μm3 mm-2
- Biovolume of P. aeruginosa (P. aeruginosa PAO1 [1]; ΔpctA, 10 h): 609991 μm3 mm-2 and 657748 μm3 mm-2 and 721040 μm3 mm-2
- Biovolume of P. aeruginosa (P. aeruginosa PAO1 [1]; ΔpctA, 19 h): 1305959 μm3 mm-2 and 1192157 μm3 mm-2 and 1109432 μm3 mm-2
- Biovolume of P. aeruginosa (P. aeruginosa PAO1 [1]; ΔpctAΔtlpQ, 1 h): 24520 μm3 mm-2 and 23099 μm3 mm-2 and 23881 μm3 mm-2
- Biovolume of P. aeruginosa (P. aeruginosa PAO1 [1]; ΔpctAΔtlpQ, 10 h): 372013 μm3 mm-2 and 288390 μm3 mm-2 and 355734 μm3 mm-2
- Biovolume of P. aeruginosa (P. aeruginosa PAO1 [1]; ΔpctAΔtlpQ, 19 h): 111554 μm3 mm-2 and 108961 μm3 mm-2 and 114758 μm3 mm-2
- Biovolume of P. aeruginosa (P. aeruginosa PAO1 [1]; ΔtlpQ, 1 h): 22029 μm3 mm-2 and 31306 μm3 mm-2 and 26285 μm3 mm-2
- Biovolume of P. aeruginosa (P. aeruginosa PAO1 [1]; ΔtlpQ, 10 h): 645081 μm3 mm-2 and 690688 μm3 mm-2 and 715157 μm3 mm-2
- Biovolume of P. aeruginosa (P. aeruginosa PAO1 [1]; ΔtlpQ, 19 h): 1292148 μm3 mm-2 and 1288991 μm3 mm-2 and 1359959 μm3 mm-2
- Kd (PctC-LBD): 94 µM and 118 µM and 86 µM
- OD590 (crystal violet biofilm) (P. aeruginosa PAO1 [2]; strain WT(Vector)): 3.71 and 3.92 and 4.21 and 4.32 and 4.12
- OD590 (crystal violet biofilm) (P. aeruginosa PAO1 [2]; strain ΔpctA(Vector)): 2.92 and 3.14 and 3.21 and 2.99 and 3.31
- OD590 (crystal violet biofilm) (P. aeruginosa PAO1 [2]; strain ΔpctAΔtlpQ(Vector)): 2.53 and 2.64 and 2.49 and 2.62 and 2.12
- OD590 (crystal violet biofilm) (P. aeruginosa PAO1 [2]; strain ΔpctAΔtlpQ(pctA)): 3.05 and 3.43 and 3.56 and 3.32 and 3.18
- OD590 (crystal violet biofilm) (P. aeruginosa PAO1 [2]; strain ΔpctAΔtlpQ(pctB)): 2.31 and 2.73 and 2.24 and 2.53 and 2.77
- OD590 (crystal violet biofilm) (P. aeruginosa PAO1 [2]; strain ΔpctAΔtlpQ(tlpQ)): 3.41 and 3.66 and 3.44 and 3.21 and 3.40
- OD590 (crystal violet biofilm) (P. aeruginosa PAO1 [2]; strain ΔtlpQ(Vector)): 3.21 and 3.31 and 3.58 and 3.67 and 3.42
- Kd (KinD-LBD): 0.12 µM and 0.16 µM and 0.15 µM
- Kd (PctA-LBD D173A): 12 µM and 14 µM and 13 µM and 10 µM
- Kd (rpHK1S-Z16-LBD): 0.13 µM and 0.19 µM and 0.21 µM
- Kd (PctA-LBD R126A): 49 µM and 33 µM and 41 µM
